Results reported in patent US20230131025A1, “QUINOLYL PHOSPHINE OXIDE COMPOUND, AND COMPOSITION AND APPLICATION THEREOF” (Betta Pharmaceuticals Co., Ltd., priority 2020, published 2023).

How the values were obtained:
[1] = tested on: Ba/F3-Δ19del/T790M/C797S-derived xenograft (CDX); test: In vivo efficacy experiment, xenograft tumor growth; design: species or system BALB/c nude mice
Description: In vivo efficacy experiments were performed on Ba/F3-Δ19del/T790M/C797S-derived xenograft (CDX) BALB/c nude mice. […] They were fed in an SPF environment, with each cage individually ventilated (6 mice per cage). […] Each mouse was subcutaneously inoculated with 0.1 mL cells (5×10^6 cells, the volume ratio of matrigel to cell was 1:1) on the right upper limb. When the tumor volume was about 150 mm^3, the grouped mice were separately administered with compound J-022 (10 mg/kg, 100 mg/kg, 150 mg/kg) orally QD for 15 consecutive days. Tumor diameters were measured with vernier calipers twice a week. The volume of tumor is calculated as: V=0.5a×b^2, wherein a and b represent the long diameter and short diameter of the tumor, respectively. The tumor growth inhibition rate TGI (%) was calculated to evaluate the tumor inhibitory effect of the compounds. TGI (%) was calculated with the following formula: TGI (%)=(1−(the average tumor volume of the compound treatment group at the end of the administration−the average tumor volume of the compound treatment group at the beginning of the administration)/(the average tumor volume of the solvent control group at the end of treatment−the average tumor volume of the solvent control group at the beginning of treatment))×100%.

[2] = tested on: human epidermal cancer cells A431 carrying EGFR WT; test: Cell proliferation experiment (CellTiter Glo, 72 hours); assay type: cell-based; details: Homo sapiens, A-431
Outline: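 Cells seeded at 2000 or 3000/well and exposed 72 h to 9-point 3-fold dilutions, top final 10000 nM or 1111 nM, 0.1% DMSO. Viability by CellTiter-Glo luminescence. Inhibition relative to cell and medium controls; IC50 by four-parameter nonlinear regression.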

[3] = In vivo safety experiment (body weight, tolerance)
Description: The safety evaluation of the drug was carried out in BALB/c nude mice. […] They were fed in an SPF environment, and each cage was individually ventilated (5 mice per cage). All cages, bedding and water were disinfected prior to use. Mice were purchased from Viton Lever and were allowed to acclimate in the laboratory. Mice were administered orally QD.

[4] = biological target: Ba/F3 EGFR WT (Homo sapiens, UniProt P00533); test: Cell proliferation experiment (CellTiter Glo, 72 hours); assay type: cell-based; details: read-out: BaF3 EGFR WT IC50
Outline: (§1)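 Ba/F3 cells overexpressing EGFR Δ19del/T790M/C797S or EGFR WT were seeded at 2000 or 3000 cells/well and exposed 72 h to 9 compound concentrations (3-fold, top 10000 or 1111 nM final, 0.1% DMSO). CellTiter-Glo luminescence gave survival inhibition versus controls; IC50 from nonlinear fit.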

[5] = biological target: Ba/F3-Δ19del/T790M/C797S (Homo sapiens, UniProt P00533, T790M/C797S, cells depend on it, form not given); test: as above; assay type: cell-based; details: read-out: Ba/F3/EGFR Δ19del/T790M/C797S IC50
Outline: as §1

Ba/F3-Δ19del/T790M/C797S, sequence (P00533 with tags, fused parts or gaps DEL746-750/T790M/C797S, form open): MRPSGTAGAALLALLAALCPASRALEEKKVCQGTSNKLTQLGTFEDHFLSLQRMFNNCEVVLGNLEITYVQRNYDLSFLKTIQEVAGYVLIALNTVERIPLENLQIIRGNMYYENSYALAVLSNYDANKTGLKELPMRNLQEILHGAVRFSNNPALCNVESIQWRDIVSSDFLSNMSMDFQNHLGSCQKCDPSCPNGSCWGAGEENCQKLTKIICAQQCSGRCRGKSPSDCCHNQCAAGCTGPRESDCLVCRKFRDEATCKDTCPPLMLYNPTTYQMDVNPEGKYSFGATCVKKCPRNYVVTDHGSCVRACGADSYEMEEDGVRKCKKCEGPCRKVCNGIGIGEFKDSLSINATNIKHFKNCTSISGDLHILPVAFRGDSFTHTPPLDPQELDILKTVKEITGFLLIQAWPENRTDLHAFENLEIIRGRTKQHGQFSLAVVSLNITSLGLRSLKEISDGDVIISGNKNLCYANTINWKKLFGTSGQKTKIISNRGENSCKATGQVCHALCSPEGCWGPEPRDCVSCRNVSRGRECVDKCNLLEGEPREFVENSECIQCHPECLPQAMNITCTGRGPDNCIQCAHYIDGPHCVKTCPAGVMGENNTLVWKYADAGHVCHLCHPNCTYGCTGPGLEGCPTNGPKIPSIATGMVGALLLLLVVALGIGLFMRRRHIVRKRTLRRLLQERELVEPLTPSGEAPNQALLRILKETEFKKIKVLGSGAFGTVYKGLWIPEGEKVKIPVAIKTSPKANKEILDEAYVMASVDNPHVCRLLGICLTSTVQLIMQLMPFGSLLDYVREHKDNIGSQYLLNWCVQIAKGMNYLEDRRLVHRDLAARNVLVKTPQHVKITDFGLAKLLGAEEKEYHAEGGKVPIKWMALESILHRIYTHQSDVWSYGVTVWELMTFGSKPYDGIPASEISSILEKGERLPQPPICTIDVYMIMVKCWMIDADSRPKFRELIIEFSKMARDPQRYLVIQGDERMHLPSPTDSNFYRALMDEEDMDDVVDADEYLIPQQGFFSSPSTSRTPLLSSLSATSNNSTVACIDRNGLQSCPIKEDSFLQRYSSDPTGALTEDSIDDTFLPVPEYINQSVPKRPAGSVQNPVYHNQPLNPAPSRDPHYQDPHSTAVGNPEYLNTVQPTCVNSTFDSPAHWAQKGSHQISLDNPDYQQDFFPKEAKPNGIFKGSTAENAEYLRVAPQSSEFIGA
Ba/F3 EGFR WT, sequence (P00533 whole entry, stated change not applied): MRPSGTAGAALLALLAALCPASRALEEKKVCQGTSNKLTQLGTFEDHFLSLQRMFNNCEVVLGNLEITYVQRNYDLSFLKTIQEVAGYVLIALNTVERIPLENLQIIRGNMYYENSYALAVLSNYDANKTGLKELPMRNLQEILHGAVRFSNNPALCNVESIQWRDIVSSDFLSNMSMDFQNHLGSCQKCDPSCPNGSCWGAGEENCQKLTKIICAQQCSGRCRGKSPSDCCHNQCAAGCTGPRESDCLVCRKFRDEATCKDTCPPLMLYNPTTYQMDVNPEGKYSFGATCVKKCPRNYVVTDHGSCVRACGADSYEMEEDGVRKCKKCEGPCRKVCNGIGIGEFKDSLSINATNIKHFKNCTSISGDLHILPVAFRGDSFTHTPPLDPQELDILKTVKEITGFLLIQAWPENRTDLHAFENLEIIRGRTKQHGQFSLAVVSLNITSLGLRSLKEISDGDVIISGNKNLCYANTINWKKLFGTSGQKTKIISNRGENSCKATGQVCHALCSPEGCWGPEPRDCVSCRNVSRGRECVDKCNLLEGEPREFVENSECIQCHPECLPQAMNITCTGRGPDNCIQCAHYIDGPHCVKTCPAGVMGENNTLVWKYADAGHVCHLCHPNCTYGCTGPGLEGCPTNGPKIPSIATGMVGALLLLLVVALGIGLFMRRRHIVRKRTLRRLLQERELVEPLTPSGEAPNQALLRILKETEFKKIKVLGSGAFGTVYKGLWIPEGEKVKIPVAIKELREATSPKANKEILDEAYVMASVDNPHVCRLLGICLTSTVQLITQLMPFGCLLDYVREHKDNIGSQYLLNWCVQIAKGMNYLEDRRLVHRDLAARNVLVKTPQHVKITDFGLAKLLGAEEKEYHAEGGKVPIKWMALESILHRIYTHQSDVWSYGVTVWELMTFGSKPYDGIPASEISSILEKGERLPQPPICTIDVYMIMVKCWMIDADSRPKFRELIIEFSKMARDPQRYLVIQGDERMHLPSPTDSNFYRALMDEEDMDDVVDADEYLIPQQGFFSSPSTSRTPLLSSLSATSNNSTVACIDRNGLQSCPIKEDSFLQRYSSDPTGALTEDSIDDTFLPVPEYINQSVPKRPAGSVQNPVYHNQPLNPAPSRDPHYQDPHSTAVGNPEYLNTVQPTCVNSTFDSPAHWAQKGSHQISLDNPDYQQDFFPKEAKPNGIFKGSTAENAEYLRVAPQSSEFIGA

COc1cc(N2CCC(N3CCN(C)CC3)CC2)c(C)cc1Nc1ncc(Br)c(Nc2ccc3nc(C4CC4)ccc3c2P(C)(C)=O)n1 [Compound J-022, (6-((5-Bromo-2-((2-methoxy-5-methyl-4-(4-(4-methylpiperazin-1-yl)piperidin-1-yl)phenyl)amino)pyrimidin-4-yl)amino)-2-cyclopropylquinolin-5-yl)dimethylphosphine oxide]
Tumor volume ([1]; 10 mg/kg/day oral QD, 0 day): 152 mm^3
15 day TGI % ([1]; 10 mg/kg/day oral QD, 15 consecutive days): 53%
Tumor volume ([1]; 10 mg/kg/day oral QD, 3 day): 183 mm^3
Tumor volume ([1]; 10 mg/kg/day oral QD, 7 day): 321 mm^3
Tumor volume ([1]; 10 mg/kg/day oral QD, 10 day): 747 mm^3
Tumor volume ([1]; 10 mg/kg/day oral QD, 15 day): 1650 mm^3
Tumor regression ([1]; 100 mg/kg/day or 150 mg/kg/day, 15 consecutive days): tumor completely regressed
Tumor volume ([1]; 100 mg/kg/day oral QD, 0 day): 151 mm^3
15 day TGI % ([1]; 100 mg/kg/day oral QD, 15 consecutive days): 105%
Tumor volume ([1]; 100 mg/kg/day oral QD, 3 day): 99 mm^3
Tumor volume ([1]; 100 mg/kg/day oral QD, 7 day): 59 mm^3
Tumor volume ([1]; 100 mg/kg/day oral QD, 10 day): 0 mm^3
Tumor volume ([1]; 100 mg/kg/day oral QD, 15 day): 0 mm^3
Tumor volume ([1]; 150 mg/kg/day oral QD, 0 day): 152 mm^3
15 day TGI % ([1]; 150 mg/kg/day oral QD, 15 consecutive days): 105%
Tumor volume ([1]; 150 mg/kg/day oral QD, 3 day): 102 mm^3
Tumor volume ([1]; 150 mg/kg/day oral QD, 7 day): 4 mm^3
Tumor volume ([1]; 150 mg/kg/day oral QD, 10 day): 0 mm^3
Tumor volume ([1]; 150 mg/kg/day oral QD, 15 day): 0 mm^3
half effective dose ([1]; dose with TGI 53%): 10 mg/kg/day
IC50 [2]: 1130 nM
Body weight of mouse ([3]; 75 mg/kg/day oral QD, 0 days): 18.7 g
Body weight of mouse ([3]; 75 mg/kg/day oral QD, 2 days): 18.9 g
Body weight of mouse ([3]; 75 mg/kg/day oral QD, 4 days): 19.2 g
Body weight of mouse ([3]; 75 mg/kg/day oral QD, 6 days): 19.4 g
Body weight of mouse ([3]; 100 mg/kg/day oral QD, 0 days): 18.7 g
Body weight of mouse ([3]; 100 mg/kg/day oral QD, 2 days): 18.6 g
Body weight of mouse ([3]; 100 mg/kg/day oral QD, 4 days): 19.0 g
Body weight of mouse ([3]; 100 mg/kg/day oral QD, 6 days): 19.2 g
Body weight of mouse ([3]; 150 mg/kg/day oral QD, 0 days): 18.7 g
Body weight of mouse ([3]; 150 mg/kg/day oral QD, 2 days): 18.3 g
Body weight of mouse ([3]; 150 mg/kg/day oral QD, 4 days): 18.5 g
Body weight of mouse ([3]; 150 mg/kg/day oral QD, 6 days): 18.4 g
Change in the body weight of mice ([3]; 150 mg/kg/day oral, 7 days): no significant change
Tolerability ([3]; 150 mg/kg/day, 7 days): tolerable
window from the effective dose to the intolerance dose ([3]; effective dose = dose corresponding to 50% TGI): greater than 15 times
GI50 [4]: 151 nM
GI50 [5]: 6.8 nM
